Source: ChEMBL document CHEMBL4316596, “Antimicrobial Peptides with High Proteolytic Resistance for Combating Gram-Negative Bacteria” (J Med Chem, 2019)
Calls of active or inactive are those of the source. The calls are words filed in the database; no cut-off is given here.

Columns and labels:
[1] = system: Salmonella typhimurium; assay: Antimicrobial activity against Salmonella typhimurium ATCC 14028 after 24 hrs by NCCLS-protocol based assay; assay type: functional, Salmonella enterica subsp. enterica serovar Typhimurium; conditions: Salmonella enterica, ATCC 14028, 24 h
[2] = Antimicrobial activity against Salmonella pullorum C7913 after 24 hrs by NCCLS-protocol based assay; assay type: functional, Salmonella enterica subsp. enterica serovar Pullorum; conditions: Salmonella enterica, C7913, 24 h
[3] = system: Acinetobacter baumannii; assay: Antimicrobial activity against Acinetobacter baumannii after 24 hrs by NCCLS-protocol based assay; assay type: functional
[4] = system: Klebsiella pneumoniae; assay: Antimicrobial activity against Klebsiella pneumoniae after 24 hrs by NCCLS-protocol based assay; assay type: functional
[5] = system: Pseudomonas aeruginosa; assay: Antimicrobial activity against Pseudomonas aeruginosa ATCC 27853 at sub-MBC after 60 passages; assay type: functional, organism-based
[6] = system: Erythrocyte; assay: Hemolytic activity against human RBC after 1 hr; assay type: ADME, cell-based
[7] = system: RAW264.7; assay: Cytotoxicity against mouse RAW264.7 cells assessed as cell death after 18 to 24 hrs by MTT assay; assay type: cell-based
[8] = Cytotoxicity against IPECJ2 cells assessed as cell death after 18 to 24 hrs by MTT assay; assay type: cell-based; conditions: Sus scrofa, IPEC-J2
[9] = Selectivity ratio of HC10 for human RBC to geometric mean of the peptide MBC for bacteria
[10] = system: Escherichia coli; assay: Bactericidal activity against Escherichia coli ATCC 25922 incubated for 4 hrs followed by culture spread on agar plates and cultured overnight in presence of KCl; assay type: functional; conditions: ATCC 25922, 4 h, read-out: MBC>99.9
[11] = system: Escherichia coli; assay: Bactericidal activity against Escherichia coli ATCC 25922 incubated for 4 hrs followed by culture spread on agar plates and cultured overnight in presence of ZnCl2; assay type: functional; conditions: ATCC 25922, 4 h, read-out: MBC>99.9
[12] = system: Escherichia coli; assay: Bactericidal activity against Escherichia coli ATCC 25922 incubated for 4 hrs followed by culture spread on agar plates and cultured overnight in presence of NH4Cl; assay type: functional; conditions: ATCC 25922, 4 h, read-out: MBC>99.9
[13] = system: Escherichia coli; assay: Bactericidal activity against Escherichia coli ATCC 25922 incubated for 4 hrs followed by culture spread on agar plates and cultured overnight in presence of 50% serum albumin; assay type: functional; conditions: ATCC 25922, 4 h, read-out: MBC>99.9
[14] = system: Escherichia coli; assay: Bactericidal activity against Escherichia coli ATCC 25922 incubated for 4 hrs followed by culture spread on agar plates and cultured overnight in presence of 25% serum albumin; assay type: functional; conditions: ATCC 25922, 4 h, read-out: MBC>99.9
[15] = system: Escherichia coli; assay: Bactericidal activity against Escherichia coli ATCC 25922 incubated for 4 hrs followed by culture spread on agar plates and cultured overnight in presence of 12.5% serum albumin; assay type: functional; conditions: ATCC 25922, 4 h, read-out: MBC>99.9
[16] = system: Escherichia coli; assay: Bactericidal activity against Escherichia coli ATCC 25922 incubated for 4 hrs followed by culture spread on agar plates and cultured overnight in presence of 1 mg/ml trypsin; assay type: functional; conditions: ATCC 25922, 4 h, read-out: MBC>99.9
[17] = system: Escherichia coli; assay: Bactericidal activity against Escherichia coli ATCC 25922 incubated for 4 hrs followed by culture spread on agar plates and cultured overnight in presence of 0.5 mg/ml trypsin; assay type: functional; conditions: ATCC 25922, 4 h, read-out: MBC>99.9
[18] = system: Escherichia coli; assay: Bactericidal activity against Escherichia coli ATCC 25922 incubated for 4 hrs followed by culture spread on agar plates and cultured overnight in presence of 0.25 mg/ml chymotrypsin; assay type: functional; conditions: ATCC 25922, 4 h, read-out: MBC>99.9
[19] = system: Escherichia coli; assay: Antibacterial activity against Escherichia coli ATCC 25922 infected in ICR mouse assessed as log reduction in bacterial cells in spleen at 5 mg/kg, ip administered at 5 mg/kg, ip dosed at 0.5, 2, 4 and 8 hrs post-infection; assay type: functional
[20] = system: Escherichia coli; assay: Antibacterial activity against Escherichia coli ATCC 25922 infected in ICR mouse assessed as log reduction in bacterial cells in peritoneal cavity at 5 mg/kg, ip administered at 5 mg/kg, ip dosed at 0.5, 2, 4 and 8 hrs post-infection; assay type: functional
[21] = system: Escherichia coli; assay: Bactericidal activity against Escherichia coli ATCC 25922 incubated for 4 hrs followed by culture spread on agar plates and cultured overnight in presence of 4 mg/ml pepsin; assay type: functional, organism-based
[22] = system: Escherichia coli; assay: Bactericidal activity against Escherichia coli ATCC 25922 incubated for 4 hrs followed by culture spread on agar plates and cultured overnight in presence of 0.125 to 4 mg/ml proteinase K; assay type: functional, organism-based
[23] = system: Escherichia coli; assay: Induction of outer membrane permeabilization in Escherichia coli ATCC 25922 at 1 uM by NPN-dye based assay relative to control
[24] = system: Escherichia coli; assay: Bactericidal activity against Escherichia coli UB1005 incubated for 4 hrs followed by culture spread on agar plates and cultured overnight; assay type: functional; conditions: UB1005, 4 h, read-out: MBC>99.9
[25] = system: Escherichia coli; assay: Bactericidal activity against Escherichia coli 078 incubated for 4 hrs followed by culture spread on agar plates and cultured overnight; assay type: functional; conditions: Escherichia coli, 078, 4 h; read-out: MBC>99.9
[26] = system: Pseudomonas aeruginosa; assay: Bactericidal activity against Pseudomonas aeruginosa CICC 21630 clinical isolates incubated for 4 hrs followed by culture spread on agar plates and cultured overnight; assay type: functional; conditions: CICC 21630, 4 h, read-out: MBC>99.9
[27] = system: Pseudomonas aeruginosa; assay: Bactericidal activity against Pseudomonas aeruginosa 25349 clinical isolates incubated for 4 hrs followed by culture spread on agar plates and cultured overnight; assay type: functional; conditions: Pseudomonas aeruginosa, 25349, 4 h; read-out: MBC>99.9
[28] = system: Salmonella typhimurium; assay: Bactericidal activity against Salmonella typhimurium ATCC 14028 incubated for 4 hrs followed by culture spread on agar plates and cultured overnight; assay type: functional, Salmonella enterica subsp. enterica serovar Typhimurium; conditions: Salmonella enterica, ATCC 14028, 4 h; read-out: MBC>99.9
[29] = system: Salmonella typhimurium; assay: Bactericidal activity against Salmonella typhimurium C7731 incubated for 4 hrs followed by culture spread on agar plates and cultured overnight; assay type: functional, Salmonella enterica subsp. enterica serovar Typhimurium; conditions: Salmonella enterica, C7731, 4 h; read-out: MBC>99.9
[30] = Bactericidal activity against Salmonella pullorum C7913 incubated for 4 hrs followed by culture spread on agar plates and cultured overnight; assay type: functional, Salmonella enterica subsp. enterica serovar Pullorum; conditions: Salmonella enterica, C7913, 4 h; read-out: MBC>99.9
[31] = system: Klebsiella pneumoniae; assay: Bactericidal activity against Klebsiella pneumoniae incubated for 4 hrs followed by culture spread on agar plates and cultured overnight; assay type: functional; conditions: read-out: MBC>99.9
[32] = biological target: Trypsin (Homo sapiens, UniProt P07477+P07478+P35030); assay: Stability of the compound assessed as trypsin (unknown origin)-mediated compound hydrolysis after 8 hrs by SDS-PAGE analysis; assay type: ADME, protein assay
[33] = biological target: Chymotrypsin (Homo sapiens, UniProt Q99895+P17538+P40313+Q6GPI1); assay: Stability of the compound assessed as chymotrypsin (unknown origin)-mediated compound hydrolysis after 8 hrs by SDS-PAGE analysis; assay type: ADME, protein assay
[34] = Stability of the compound assessed as Tritirachium album proteinase K-mediated compound hydrolysis after 8 hrs by SDS-PAGE analysis; assay type: ADME; conditions: parengyodontium album
[35] = Stability of the compound assessed as Tritirachium album proteinase K-mediated compound hydrolysis by measuring compound helicity by CD spectroscopy; assay type: ADME; conditions: parengyodontium album
[36] = system: Escherichia coli; assay: Induction of cytoplasmic membrane depolarization in Escherichia coli ATCC 25922 assessed as induction cytoplasmic ONPG release at 2 to 16 uM up to 120 mins by DiSC3-5 dye-based fluorescence spectrophotometric method; assay type: functional, organism-based

H-IRPIIRPIIRPIIRPIIRPIIRPIIRPI-NH2
MIC95 [1]: 2 µM | MIC95 [2]: 2 µM | MIC95 [3]: 1 µM | MIC95 [4]: 2 µM | Activity [5]: Active | HC10 [6]: > 128 µM | IC50 [7]: 5650 µM | IC50 [8]: 126 µM | Ratio [9]: 51.5 | MBC [10]: 2 µM | MBC [11]: 2 µM | MBC [12]: 2 µM | MBC [13]: 16 µM | MBC [14]: 8 µM | MBC [15]: 8 µM | MBC [16]: 2 µM | MBC [17]: 2 µM | MBC [18]: 2 µM | log(activity) [19]: 1.6 | log(activity) [20]: 5 | Activity [21]: Active | Activity [22]: Active | Activity [23]: >50% | MBC [24]: 2 µM | MBC [25]: 1 µM | MBC [26]: 32 µM | MBC [27]: 32 µM | MBC [28]: 2 µM | MBC [29]: 2 µM | MBC [30]: 4 µM | MBC [31]: 4 µM | Stability [32]: Stable | Stability [33]: Stable | Stability [34]: Stable | Stability [35]: Unstable | Activity [36]: Active
